Test results published in patent US8779002B2, “Methods for treating a variety of diseases and conditions, and compounds useful therefor” (Salk Institute for Biological Studies, priority 2007, dated 2014).

Tests used:
PC12 cells = assay: Glucose starvation assay; type: cell-based; design: key: + = positive result or enzyme activation; settings: Cell Culture
Description: FIG. 1C illustrates the results of a glucose starvation assay. PC12 cells were starved for glucose plus or minus 20 nM J147; cell viability was then determined 48 hr later using the MTT assay (T. Soucek, R. Cumming, R. Dargusch, P. Maher and D. Schubert, Neuron 39 (2003) 43-56).

Cortical Nerve = assay: In vitro ischemia, cortical nerve; type: cell-based; design: key: + = positive result or enzyme activation
Rabbit stroke = Rabbit stroke model; design: key: + = positive result or enzyme activation; settings: in vivo
Memory = assay: Memory, animal models (Table 2); design: key: + = positive result or enzyme activation; settings: in vivo
[1] = tested on: Schaffer collateral CA1 pyramidal cell synapses in rat hippocampal slices; assay: LTP induction in hippocampal slices; design: key to LTP: + = positive result or enzyme activation
From the text: Hippocampal slices were exposed to J147 during the time indicated by the black bar. The field excitatory postsynaptic potential (fEPSP) slope is expressed as the percentage of the value immediately before the addition of J147.
The effect of J147 is dose-dependent. The hippocampal slices were untreated or exposed to J147 for the time indicated by the black bar, and weak tetanic stimulation was applied at time 0. The fEPSP slope is expressed as the percentage of the value immediately before the application of weak tetanic stimulation. FIG. 3B illustrates the time course of changes in the fEPSP slope.
To compare the data among the groups, the averages of the fEPSP slopes 30-60 min after tetanic stimulation were calculated as an index of LTP magnitude; the results are shown in FIG. 3C. All the data are the mean±SEM […] vs none.

CREB = CREB phosphorylation; type: cell-based, mouse; design: key: + = positive result or enzyme activation
From the text: CREB activation has been linked to cell survival and accordingly, is considered to be a validated therapeutic target (Vaishnov, et al, Biochem. Biophys. Res. Commun. 307:855-860 (2003)). Similar to the concept of programmed cell death which involves transcription factors pivotal in switching on the nerve cell death program is the transcriptional control of programmed cell life. For example, recent studies of the activation of the CREB transcription factor in stroke models have shown that CREB is phosphorylated (and presumably activated) in neurons that survive this insult.
CREB phosphorylation in response to oxidative stress is evaluated in the presence of invention compounds. Glutamate is added to HT22 cells in the presence or absence of Cmpd CNB-001 (at 1 μM). The ratio of phosphorylated CREB to total CREB is then measured as a function of time. Furthermore, all of the HT22 cells die in the absence of Cmpd CNB-001, and over 90% live in the presence of Cmpd CNB-001.

[2] = Toxicology: animal weight or overall health; type: in vivo
Wistar rats = assay: Novel object recognition task in rats; type: in vivo, rat; settings: for Recognition index, Mean: Wistar rats, n=8
Description: FIG. 6 illustrates the effect of galantamine, compounds CNB-001, J147, SK186 and SKI 87 on object recognition task in Wistar rats. The data represent mean±SEM. *p<0.05 compared with the vehicle control.
This model is based on the greater spontaneous exploration of a novel object, compared with a familiar object, shown by rodents (see Ennaceur and Delacour in Behav. Brain Res. 31:47 (1988)). Male Wister rats are assessed for cognitive ability in a test apparatus comprising an open-field arena placed in a sound-attenuated room under dimmed lighting. Images of the open-field are captured by digital camera, and viewed on a monitor in an adjoining room. Each rat is subjected to the procedure separately and care is taken to remove any olfactory/taste cues by cleaning the arena and test objects with alcohol between trials and rats.
Adult male Wistar rats were employed in all rat studies. Animals were placed in the experimental rooms at postnatal day 80 and assigned unique identification numbers (tail marked). Pairs were housed in polycarbonate cages with filter tops and acclimated for 3 days prior to commencing any studies. Animals were maintained in a 12 hour light/dark cycle with room temperature maintained at 22±2° C. with a relative humidity maintained approximately 50%. Food and water were provided ad libitum.
All animals were examined, handled, and weighed for a further two days prior to initiation of the study to assure adequate health and suitability and to minimize non-specific stress associated with manipulation. Each animal was randomly assigned across the treatment groups and balanced by cage numbers. The novel object recognition experiment was performed during the animal's light cycle phase. Drug treatments were balanced across days and animals were only used once
The following compounds were used for this study—Reference compound (Galantamine; 3 mg/kg) was dissolved in 0.9% saline and administered i.p. 1 hour pre-test at a dose volume of 1 ml/kg, and all test compounds were handled in solution, and were kept at −80° C. until use. All compounds were administered orally 60 min prior to training at a volume of 1 ml/kg body weight.
Following a 5-minute habituation period, each rat was placed into the test arena in the presence of two identical objects (plastic shapes). Each rat was placed facing the same direction at the same position in the arena, and the time spent actively exploring the objects during a 5-minute test period (T1) was recorded. The rat was returned to its home cage between tests. After 24 hours, each rat was again placed in the test arena for 5 minutes (T2) in the presence of one of the familiar objects and a novel object, and the time spent exploring both objects was again recorded. The presentation order and position of the objects (left/right) was randomized between rats to prevent bias from order or place preference. A preference index for each object, the ratio of the time spent exploring either the familiar object or the novel object over the total time spent exploring both objects (during retention session T2) was used to measure cognitive function.
Data were analyzed by a one-way analysis of variance (ANOVA) followed by post-hoc comparisons with Fisher Tests when appropriate. An effect was considered significant if p<0.05. Data in the following tables are presented as the mean and standard error to the mean.

JNK-3 = JNK-3 (Homo sapiens, UniProt P53779); assay: Protein kinase panel: JNK-3; type: biochemical; settings: panel of 14 protein kinases
From the text: (§1) A panel of 14 protein kinases was screened against Cmpd CNB-001. […] In HT22 cells and primary cortical neurons, Cmpd CNB-001 blocked p38 and JNK phosphorylation caused by glutamate by about 30%, and inhibited cell death. The phosphorylation of the other tested kinases was not altered.

p38 = p38 phosphorylation caused by glutamate; type: cell-based; settings: HT22 cells and primary cortical neurons
From the text: as §1

JNK = JNK phosphorylation caused by glutamate; type: cell-based; settings: HT22 cells and primary cortical neurons
From the text: as §1

[3] = 5 mg/kg orally 60 min prior to training
[4] = 10 mg/kg orally 60 min prior to training
[5] = 25 mg/kg orally 60 min prior to training

Sequence of JNK-3 (P53779 whole entry, species assumed): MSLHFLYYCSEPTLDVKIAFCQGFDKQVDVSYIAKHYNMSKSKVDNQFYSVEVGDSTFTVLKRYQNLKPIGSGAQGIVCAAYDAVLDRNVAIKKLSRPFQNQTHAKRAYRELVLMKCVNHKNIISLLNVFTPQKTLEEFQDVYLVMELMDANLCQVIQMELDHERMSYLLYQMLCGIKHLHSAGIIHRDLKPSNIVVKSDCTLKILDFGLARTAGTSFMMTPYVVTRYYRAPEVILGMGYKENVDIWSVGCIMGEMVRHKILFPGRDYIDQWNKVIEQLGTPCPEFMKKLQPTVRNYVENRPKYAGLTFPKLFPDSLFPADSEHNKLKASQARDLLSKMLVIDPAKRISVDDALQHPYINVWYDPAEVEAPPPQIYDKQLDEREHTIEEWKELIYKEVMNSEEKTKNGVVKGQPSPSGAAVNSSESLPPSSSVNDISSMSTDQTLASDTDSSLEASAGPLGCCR

SMILES	Glucose Starvation (PC12 cells)	In Vitro Ischemia, Cortical Nerve (Cortical Nerve)	Memory (Memory)	Memory, Animal (Memory)	LTP [1]	CREB (CREB)	Recognition index, Mean (Wistar rats; [3])	Recognition index, Mean (Wistar rats; [4])	Recognition index, Mean (Wistar rats; [5])	Fisher's PLSD for Recognition index, Mean Diff. (*vehicle, treatment) (Wistar rats; vehicle versus 5 mg/kg oral)	Fisher's PLSD for Recognition index, Mean Diff. (*vehicle, treatment) (Wistar rats; vehicle versus 10 mg/kg oral)	Fisher's PLSD for Recognition index, Mean Diff. (*vehicle, treatment) (Wistar rats; vehicle versus 25 mg/kg oral)	further results
COc1cc(/C=C/c2cc(/C=C/c3ccc(O)c(OC)c3)n(-c3ccccc3)n2)ccc1O [CNB-001]	+	+	+	+	+	+	63.663	77.964	45.226	−11.741	−26.042	6.697	Animal Models, Rabbit stroke (Rabbit stroke): +; Toxicology-no apparent effect on animal weight or overall health ([2]; several mo. (mice)): 500 ppm food; Effect on recognition index (Wistar rats; 10 mg/kg, versus vehicle, p<0.05): significantly increased; Inhibition of kinase (JNK-3): partially inhibited; Block of p38 phosphorylation caused by glutamate (p38): about 30%; Block of JNK phosphorylation caused by glutamate (JNK): about 30%
COc1cccc(/C=N/N(C(=O)C(F)(F)F)c2ccc(C)cc2C)c1 [Compound J147]	+	+	+	+	+	+	63.053	54.213	51.372	−11.130	−2.291	.550	Induction of LTP ([1]; after a weak tetanic stimulation (15 pulses at 100 Hz), fEPSP slope): facilitate the induction of LTP; Basal synaptic transmission ([1]; fEPSP slope, J147 1 μM): does not affect basal synaptic transmission; Toxicology-no apparent effect on animal weight or overall health ([2]; gavage 10 d (mice)): 300 mg/kg
